From PubChem BioAssay (NCI)
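Protocol summary: plate cells (96-well), add compound at 5 concentrations, incubate 48 h, interpolate endpoints linearly. The concentration for full growth arrest is given as TGI.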

Key:
Assay in all cases: DTP human tumour cell line panel, 48 h
786-0 renal = system: 786-0 renal
A498 renal = system: A498 renal
A549 NSCLC = system: A549 NSCLC
ACHN renal = system: ACHN renal
BT-549 breast = system: BT-549 breast
CAKI-1 renal = system: CAKI-1 renal
CCRF-CEM leukemia = system: CCRF-CEM leukemia
COLO 205 colon = system: COLO 205 colon
DU-145 prostate = system: DU-145 prostate
EKVX NSCLC = system: EKVX NSCLC
HCT-116 colon = system: HCT-116 colon
HCT-15 colon = system: HCT-15 colon
HL-60(TB) leukemia = system: HL-60(TB) leukemia
HOP-62 NSCLC = system: HOP-62 NSCLC
HOP-92 NSCLC = system: HOP-92 NSCLC
HT29 colon = system: HT29 colon
IGROV1 ovarian = system: IGROV1 ovarian
K-562 leukemia = system: K-562 leukemia
KM12 colon = system: KM12 colon
LOX IMVI melanoma = system: LOX IMVI melanoma
M14 melanoma = system: M14 melanoma
MCF7 breast = system: MCF7 breast
MDA-MB-231 breast = system: MDA-MB-231 breast
MDA-MB-435 = system: MDA-MB-435
MDA-N = system: MDA-N
MOLT-4 leukemia = system: MOLT-4 leukemia
NCI-H226 lung = system: NCI-H226 lung
NCI-H23 lung = system: NCI-H23 lung
NCI-H460 lung = system: NCI-H460 lung
NCI/ADR-RES ovarian = system: NCI/ADR-RES ovarian
OVCAR-3 ovarian = system: OVCAR-3 ovarian
OVCAR-4 ovarian = system: OVCAR-4 ovarian
OVCAR-5 ovarian = system: OVCAR-5 ovarian
OVCAR-8 ovarian = system: OVCAR-8 ovarian
PC-3 prostate = system: PC-3 prostate
RPMI-8226 leukemia = system: RPMI-8226 leukemia
RXF 393 renal = system: RXF 393 renal
SF-295 CNS = system: SF-295 CNS
SF-539 CNS = system: SF-539 CNS
SK-MEL-2 melanoma = system: SK-MEL-2 melanoma
SK-MEL-28 melanoma = system: SK-MEL-28 melanoma
SK-MEL-5 melanoma = system: SK-MEL-5 melanoma
SK-OV-3 ovarian = system: SK-OV-3 ovarian
SN12C renal = system: SN12C renal
SNB-19 CNS = system: SNB-19 CNS
SNB-75 CNS = system: SNB-75 CNS
SR leukemia = system: SR leukemia
SW-620 colon = system: SW-620 colon
T-47D breast = system: T-47D breast
TK-10 renal = system: TK-10 renal
U251 CNS = system: U251 CNS
UACC-257 melanoma = system: UACC-257 melanoma
UACC-62 melanoma = system: UACC-62 melanoma
HCC-2998 colon = system: HCC-2998 colon
MALME-3M melanoma = system: MALME-3M melanoma
NCI-H522 lung = system: NCI-H522 lung
SF-268 CNS = system: SF-268 CNS
UO-31 renal = system: UO-31 renal

`O=S(=O)(O)c1cc(N=Nc2cccc3ccccc23)c(O)c2ncccc12` showed a TGI (786-0 renal) of over 100 µM, a TGI (A498 renal) of over 100 µM and a TGI (A549 NSCLC) of over 100 µM. The TGI (ACHN renal) was over 100 µM, the TGI (BT-549 breast) was over 100 µM and the TGI (CAKI-1 renal) was over 100 µM. The TGI (CCRF-CEM leukemia) was over 100 µM, the TGI (COLO 205 colon) was over 100 µM and the TGI (DU-145 prostate) was over 100 µM. For the same compound, the TGI (EKVX NSCLC) was over 100 µM, the TGI (HCT-116 colon) was over 100 µM and the TGI (HCT-15 colon) was over 100 µM. For the same compound, the TGI (HL-60(TB) leukemia) was over 100 µM, the TGI (HOP-62 NSCLC) was over 100 µM and the TGI (HOP-92 NSCLC) was over 100 µM. For the same compound, the TGI (HT29 colon) was 83.5 µM, the TGI (IGROV1 ovarian) was over 100 µM and the TGI (K-562 leukemia) was over 100 µM. The TGI (KM12 colon) was over 100 µM, the TGI (LOX IMVI melanoma) was over 100 µM and the TGI (M14 melanoma) was over 100 µM. For the same compound, the TGI (MCF7 breast) was over 100 µM, the TGI (MDA-MB-231 breast) was over 100 µM and the TGI (MDA-MB-435) was over 100 µM. For the same compound, the TGI (MDA-N) was over 100 µM, the TGI (MOLT-4 leukemia) was over 100 µM and the TGI (NCI-H226 lung) was 85.8 µM. The TGI (NCI-H23 lung) was over 100 µM, the TGI (NCI-H460 lung) was 69.4 µM and the TGI (NCI/ADR-RES ovarian) was over 100 µM. It also gave a TGI (OVCAR-3 ovarian) of over 100 µM, a TGI (OVCAR-4 ovarian) of over 100 µM and a TGI (OVCAR-5 ovarian) of over 100 µM. For the same compound, the TGI (OVCAR-8 ovarian) was over 100 µM, the TGI (PC-3 prostate) was over 100 µM and the TGI (RPMI-8226 leukemia) was over 100 µM. For the same compound, the TGI (RXF 393 renal) was over 100 µM, the TGI (SF-295 CNS) was over 100 µM and the TGI (SF-539 CNS) was over 100 µM. It also gave a TGI (SK-MEL-2 melanoma) of over 100 µM, a TGI (SK-MEL-28 melanoma) of over 100 µM and a TGI (SK-MEL-5 melanoma) of over 100 µM. The TGI (SK-OV-3 ovarian) was over 100 µM, the TGI (SN12C renal) was over 100 µM and the TGI (SNB-19 CNS) was over 100 µM. It also gave a TGI (SNB-75 CNS) of over 100 µM, a TGI (SR leukemia) of 65.7 µM and a TGI (SW-620 colon) of over 100 µM. For the same compound, the TGI (T-47D breast) was over 100 µM, the TGI (TK-10 renal) was over 100 µM and the TGI (U251 CNS) was over 100 µM. It also gave a TGI (UACC-257 melanoma) of over 100 µM and a TGI (UACC-62 melanoma) of over 100 µM.
In the case of `Cc1cc(S(=O)(=O)NC2=NCC(C)NN2)c(S)cc1Cl` (stereo not given), the TGI (786-0 renal) is reported as over 100 µM, the TGI (A498 renal) is reported as 69.8 µM and the TGI (A549 NSCLC) is reported as over 100 µM. The TGI (ACHN renal) was over 100 µM, the TGI (BT-549 breast) was over 100 µM and the TGI (CAKI-1 renal) was over 100 µM. The TGI (CCRF-CEM leukemia) was over 100 µM, the TGI (COLO 205 colon) was over 100 µM and the TGI (DU-145 prostate) was over 100 µM. For the same compound, the TGI (EKVX NSCLC) was over 100 µM, the TGI (HCC-2998 colon) was over 100 µM and the TGI (HCT-116 colon) was over 100 µM. For the same compound, the TGI (HCT-15 colon) was over 100 µM, the TGI (HL-60(TB) leukemia) was over 100 µM and the TGI (HOP-62 NSCLC) was over 100 µM. For the same compound, the TGI (HT29 colon) was over 100 µM, the TGI (IGROV1 ovarian) was 53.3 µM and the TGI (K-562 leukemia) was 80.9 µM. The TGI (KM12 colon) was over 100 µM, the TGI (LOX IMVI melanoma) was 37.7 µM and the TGI (M14 melanoma) was over 100 µM. It also gave a TGI (MALME-3M melanoma) of 69.2 µM, a TGI (MCF7 breast) of over 100 µM and a TGI (MDA-MB-231 breast) of over 100 µM. The TGI (MDA-MB-435) was over 100 µM, the TGI (MDA-N) was over 100 µM and the TGI (MOLT-4 leukemia) was over 100 µM. It also gave a TGI (NCI-H226 lung) of over 100 µM, a TGI (NCI-H23 lung) of over 100 µM and a TGI (NCI-H460 lung) of over 100 µM. For the same compound, the TGI (NCI-H522 lung) was 47 µM, the TGI (NCI/ADR-RES ovarian) was over 100 µM and the TGI (OVCAR-3 ovarian) was over 100 µM. It also gave a TGI (OVCAR-4 ovarian) of over 100 µM, a TGI (OVCAR-5 ovarian) of over 100 µM and a TGI (OVCAR-8 ovarian) of over 100 µM. For the same compound, the TGI (PC-3 prostate) was over 100 µM, the TGI (RPMI-8226 leukemia) was 61.8 µM and the TGI (RXF 393 renal) was over 100 µM. It also gave a TGI (SF-268 CNS) of 73 µM, a TGI (SF-295 CNS) of over 100 µM and a TGI (SF-539 CNS) of over 100 µM. The TGI (SK-MEL-2 melanoma) was 84.3 µM, the TGI (SK-MEL-28 melanoma) was over 100 µM and the TGI (SK-MEL-5 melanoma) was over 100 µM. The TGI (SK-OV-3 ovarian) was over 100 µM, the TGI (SN12C renal) was over 100 µM and the TGI (SNB-19 CNS) was over 100 µM. The TGI (SNB-75 CNS) was over 100 µM, the TGI (SR leukemia) was 90.4 µM and the TGI (SW-620 colon) was over 100 µM. The TGI (T-47D breast) was over 100 µM, the TGI (TK-10 renal) was over 100 µM and the TGI (U251 CNS) was over 100 µM. For the same compound, the TGI (UACC-257 melanoma) was over 100 µM, the TGI (UACC-62 melanoma) was over 100 µM and the TGI (UO-31 renal) was over 100 µM.
